Laboratory results: PubChem BioAssay (NCI)
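Values below derive from 48-hour exposures of cells grown in 96-well plates, with endpoints linearly interpolated between the two concentrations bracketing the appropriate inhibition level. GI50 is the concentration that inhibits growth by half. TGI is the concentration that stops growth completely.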

Legend:
Assay in all cases: NCI-60 cell line screen, 48 h
[1] = test system: M14 melanoma
[2] = test system: SK-MEL-28 melanoma
[3] = test system: TK-10 renal
[4] = test system: MDA-MB-435
[5] = test system: OVCAR-4 ovarian
[6] = test system: A498 renal
[7] = test system: HL-60(TB) leukemia
[8] = test system: NCI-H23 lung
[9] = test system: COLO 205 colon
[10] = test system: EKVX NSCLC
[11] = test system: MCF7 breast

Compound	TGI [1] [µM]	TGI [2] [µM]	TGI [3] [µM]	TGI [4] [µM]	TGI [5] [µM]	TGI [6] [µM]	TGI [7] [µM]	TGI [8] [µM]	TGI [9] [µM]	TGI [10] [µM]	TGI [11] [µM]	GI50 [1] [µM]
COc1cc(C(=O)O[C@@H]2[C@@H](OC(=O)c3cc(OC)c(OC)c(OC)c3)[C@@H](OC)O[C@@H]3CO[C@@H](c4ccccc4)O[C@@H]23)cc(OC)c1OC	> 100	> 100	> 100	> 100	> 100	> 100	> 100	> 100	> 100	> 100	> 100	
Brc1c(C#CCC(c2ccccc2)(c2ccccc2)c2ccccc2)ccc(C#CCC(c2ccccc2)(c2ccccc2)c2ccccc2)c1Br	> 100	> 100	> 100	> 100	> 100	> 100	> 100	> 100	> 100	> 100	> 100	
CCOC(=O)C(C(=O)c1ccccc1C(=O)OC)=P(c1ccccc1)(c1ccccc1)c1ccccc1	> 10	> 10	> 10	> 10	> 10	> 10	> 10	> 10	> 10	> 10	> 10	
CN(C)CC1COC2Cc3ccccc3C1O2 (configuration not stated)	> 100	> 100	> 100	> 100	> 100	> 100	> 100	> 100	> 100	> 100	> 100	
CCOc1ccc(NC(=O)/C(=N\NC(C)(C)C)C2C(=O)Nc3ccccc3S2=O)cc1 (configuration not stated)	> 100	> 100	> 100	> 100	> 100	> 100	> 100	> 100	> 100	> 100	> 100	
N#CC(=C1CCCCC1)c1nc2ccccc2o1	> 100	> 100	> 100	> 100	> 100	> 100	75	> 100	33.7	89.4	> 100	
COc1cc(C)cc2c1c(=O)c1ccccc1n2C	> 100	> 100	> 100	> 100	> 100	89.2	83.3	> 100	79.1	> 100	> 100	
C/C(=N\Nc1nc2ccccc2n1C)c1cnccn1	6.53		> 100	> 100	> 100	> 63.3	0.058	> 100	> 100	> 100	> 100	
Oc1ccccc1C=Nc1ccc(-c2nc3ccccc3[nH]2)cc1	> 100	> 100	> 100	> 100	> 100	> 100	> 100	> 100	> 100	> 100	> 100	
OC[C@]1(n2nc3ccccc3n2)OC[C@@H]1c1ccccc1	> 100	> 100	> 100	> 100	70.7	> 100	93.9	> 100	> 100	> 100	> 100	
CC1(C)CC23CC(C)(C)c4cccc(c42)OCc2ccc4ccc5ccc(nc5c4n2)COc2cccc1c23	> 50	> 50	> 50	> 50	> 50	> 50	> 50		> 50	> 50	> 50	
C=C(C)C1CC/C(C)=C/CC[C@]2(C)O[C@H]2CC/C(COC(C)=O)=C\[C@@H]1O (some centres not stated)	> 50	> 50	> 50	> 50	> 50	> 50	> 50	> 50	> 50	> 50	> 50	8.28
Cc1cccc(CC(Cc2c(C)cccc2C(=O)O)C(=O)O)c1 (configuration not stated)	> 100	> 100	> 100	> 100	> 100	> 100	> 100	> 100	> 100	> 100	> 100	
CC1=CCC2C3(C)CCC2(C(C)C)C1C3 (configuration not stated) (tested in a mixture with another compound)	45.7	88.6	78.7	88.2	> 100	89.4	57.3	> 100	65	50.9	34.3	
CC1(C)CC(=O)C2=C(C1)NC1=C(C(=O)CC(C)(C)C1)C2c1ccc([N+](=O)[O-])cc1	> 100	> 100	> 100	> 100	> 100	> 100	> 100	> 100	> 100	> 100	> 100	
C=C(C)CC1(O)C(=O)C(OCC)=C1OCC (configuration not stated)	> 100	> 100	> 100	> 100	> 100	> 100	> 100	> 100	> 100	> 100	> 100	
CCOC(=O)c1sc(N/N=C2\NC(=O)/C(=C/c3ccc([N+](=O)[O-])cc3)S2)nc1C	> 100	> 100	> 100	77.3	> 100	58.5	51.8	80.5	48.5	43.4	72.5	
Cc1ccc(S(=O)(=O)N2C[C@](O)(c3ccccc3)[C@H]2C)cc1	> 100	> 100	> 100	> 100	> 100	> 100	> 100	> 100	> 100	> 100	> 100	
